Entries after “also recorded” stand apart in the source; their conditions may differ.
Assays:
[1] = tested on: lung collagen; assay: Murine bleomycin model, collagen deposition; type: in vivo, mice (C57BL/6); details: bleomycin mice
Experimental: Mice (C57BL/6) were divided into healthy (n=15), vehicle-treated (n=15), and test article-treated (n=15 per dose) groups. Mice in the vehicle and test article-treated groups were administered 3 U/kg of bleomycin (Teva Pharmaceuticals; North Wales, PA) via oropharyngeal aspiration while under anesthesia on day 0. Healthy animals were administered water in a similar fashion. Starting on day 7, mice in the control group were administered PBS vehicle, 130 μL, by oral gavage, BID for 14 days. Also starting on day 7, mice in the test group were administered compound 5 in PBS by oral gavage, BID for 14 days, at relative dosages of 1×, 2.5× and 5×. […] From day 14 through day 21, 9 of the 15 mice were administered ^2H2O for labeling. All mice were sacrificed on day 21 and tissues were collected. Samples were prepared for analysis either directly from lung tissue, or by bronchoalveolar lavage, which washes out the bronchiolar and alveolar space with saline to produce a bronchoalveolar lavage fluid (BALF) in which 80-90% of cells are alveolar macrophages.
FIGS. 2F, 2G, and 2H show high resolution second harmonic generation images of fibrillar collagen (collagen type I and III) taken from formalin-fixed paraffin embedded lung tissue sections from a healthy mouse lung (2F), a vehicle-treated mouse lung (2G) and a test-article treated mouse lung (2H; 500 mg/kg BID). Color scale is indicative of collagen fiber density (red=most dense; blue=least dense).
FIG. 2I is a graph showing the percent total collagen area in the second harmonic generation mouse lung images. Large structural areas of collagen found similarly in healthy and fibrotic tissues (dense collagen fibers surrounding airways were excluded from this analysis to focus on interstitial fibrotic collagen). […] The 1×, 2.5×, and 5× dosages were at the same absolute values in mg/kg as in Example B2.

[2] = tested on: COL1A1 expression; assay: Precision cut lung slices from human IPF explants, COL1A1 expression; type: cell-based
Description: Explanted lung tissue was obtained from human IPF subjects and inflated with agarose as described in the preceding examples. Biopsy cores were obtained from the agarose-inflated lung tissue. The biopsy cores were subjected to precision slicing to obtain several hundred μm thick. Individual slices were distributed in a multiwell culture plate and cultured for […] under control (DMSO) and test compound conditions. The viability of the slices over the course of culturing was confirmed by WST-1 assay of mitochondrial activity.
PCLS from 5-7 idopathic pulmonary fibrosis (IPF) lung tissue samples were cultured for seven days with one of: DMSO; Compound 5 at 200 nM; nintedanib at 75 nM; pirfenidone at 50 μm; a combination of Compound 5 at 200 nM and nintedanib at 75 nM; a combination of Compound 5 at 200 nM and pirfenidone at 50 μm; or an Alk5 inhibitor at 1 μm. […] FIG. 4D is a bar graph showing relative expression of COL1A1 in precision cut lung slices (PCLS) from idopathic pulmonary fibrosis (IPF) lung tissue upon exposure to Compound 5, clinical standard of care compounds nintedanib (Nin) and pirfenidone (Pirf), and an ALK5 inhibitor, all versus DMSO control.
PCLS from a single IPF lung tissue sample were cultured for seven days with Compound 5 at concentrations of 200 μM, 2 nM, 60 nM, 200 nM, and 1 μM, along with 0.1% DMSO control and an Alk5 inhibitor at 1 μM. […] COL1A1 expression is also graphed for the PCLS in the presence of 0.1% DMSO control, and an Alk5 inhibitor at 1 μM.

[3] = tested on: Quantitative Lung Fibrosis (QLF); assay: Phase 2a trial in IPF, HRCT-based Quantitative Lung Fibrosis; type: in vivo, human; details: baseline to week 12, CT Protocol Population
Description: The exploratory endpoints of the trial measured changes in forced vital capacity (FVC), HRCT-based Quantitative Lung Fibrosis score (QLF), and selected biomarkers over 3 months of treatment.
FIG. 29 illustrates the Mean Percent Change in Quantitative Lung Fibrosis (the extent from baseline to week 12 in the CT Protocol Population), using High-Resolution Computed Tomography (HRCT) based Quantitative Lung Fibrosis (QLF) imaging.

[4] = tested on: pSmad2/Smad2; assay: Alveolar pSmad2/Smad2 in BAL, 80 mg and 160 mg QD (FIG. 10); type: in vivo, human; details: 80 mg and 160 mg QD (Part 1), p<0.0001
Experimental: Alveolar pSmad2/Smad2 percentage change from baseline at 24 h (Part 1: 80 mg and 160 mg). […] BAL—bronchoalveolar lavage; pSmad2/Smad2—ratio of phosphorylated Smad2 to total Smad2; QD—once daily.

[5] = tested on: PRO-C3 and PRO-C6; assay: Phase 2a trial in IPF, serum biomarkers of collagen synthesis; type: in vivo, human; details: IPF participants
Description: FIG. 27 (PRO—C3 Type III collagen synthesis neoepitope) and FIG. 28 (PRO—C6 TypeVI collagen synthesis neoepitope) compare serum biomarkers of collagen synthesis in Compound 5 groups versus placebo groups. Compound 5 decreased serum biomarkers of collagen synthesis relative to placebo. […] LS=Least Squares, SEM=Standard Error of Mean.

[6] = tested on: Type I Collagen gene Col1a1 expression; assay: Precision cut lung slices, acute bleomycin exposure, Col1a1 expression; type: cell-based, mice (C57BL/6); details: 3 days culture; integrin inhibitors at IC50 for TGF-beta activation; pan-αV and ALK5 inhibitors at 10× reported IC50; FIG. 3A
Experimental: Mice (C57BL/6) were administered 3 U/kg of bleomycin (Teva Pharmaceuticals; North Wales, PA) on day 0 via oropharyngeal aspiration while under anesthesia. On day 14, precision cut lung slices were obtained. Following euthanization, 2% low gelling temp agarose was injected into the mouse lungs via the trachea. […] The lobes were then subjected to precision slicing to obtain samples for culture using a microtome (Compresstome VF-300-OZ, Precisionary; Greenville, NC). Individual slices were distributed in a multiwell culture plate and cultured for 3 days under control (DMSO) and test compound conditions.

Structure (SMILES): COCCN(CCCCc1ccc2c(n1)NCCC2)CC[C@H](Nc1ncnc2ccccc12)C(=O)O [Compound 5, (S)-4-((2-methoxyethyl)(4-(5,6,7,8-tetrahydro-1,8-naphthyridin-2-yl)butyl)amino)-2-(quinazolin-4-ylamino)butanoic acid]
- accumulated new collagen (percentage of lung collagen containing 2H-labeled hydroxyproline) ([1]; 1× and 5× BID, FIG. 2D): dose-dependent reduction
- total pulmonary collagen (μg of hydroxyproline) ([1]; 1×, […], 5× BID, FIG. 2E): reduction in total pulmonary collagen
- total collagen area in second harmonic generation images ([1]; 1×, […], 5× BID, FIG. 2I): substantial, statistically significant dose-dependent reduction
- lung Col1a1 expression, normalized to DMSO control slices ([2]; human IPF slices, 3 days, 3G9 ≥400 ng/mL, compound 5 179 nM, ALK5 inhibitor 1 μM, FIG. 4C): substantial, statistically significant (p<0.01 vs vehicle) decrease
- COL1A1 expression, concentration dependence ([2]; single IPF sample, seven days, 200 μM, 2 nM, 60 nM, 200 nM, 1 μM, FIG. 4E): dose dependent reduction
- Improvers < −2% QLF extent change, (%) ([3]; 40 mg (N = 15)): 6.6%
- Median, QLF extent change ([3]; 40 mg (N = 15)): 1.50%
- Stable [−2, 2%) QLF extent change, (%) ([3]; 40 mg (N = 15)): 46.7%
- Worse > 2% QLF extent change, (%) ([3]; 40 mg (N = 15)): 46.7%
- Improvers < −2% QLF extent change, (%) ([3]; 80 mg (N = 18)): 11.1%
- Mean Difference (SD), QLF extent ([3]; 80 mg (N = 18)): 0.70%
- Median, QLF extent change ([3]; 80 mg (N = 18)): −0.45%
- Stable [−2, 2%) QLF extent change, (%) ([3]; 80 mg (N = 18)): 72.2%
- Worse > 2% QLF extent change, (%) ([3]; 80 mg (N = 18)): 16.7%
- Improvers < −2% QLF extent change, (%) ([3]; 160 mg (N = 14)): 28.6%
- Mean Difference (SD), QLF extent ([3]; 160 mg (N = 14)): 0.00%
- Median, QLF extent change ([3]; 160 mg (N = 14)): −0.10%
- Stable [−2, 2%) QLF extent change, (%) ([3]; 160 mg (N = 14)): 50.0%
- Worse > 2% QLF extent change, (%) ([3]; 160 mg (N = 14)): 21.4%
- Alveolar pSmad2/Smad2 percentage change from baseline at 24 h vs. placebo [4]: statistically significant at both doses
- change from baseline of serum PRO-C3 (type III collagen synthesis) vs. placebo ([5]; FIG. 27): decreased; also recorded: reduced in participants receiving Compound 5 vs. placebo (not significant)
- change from baseline of serum PRO-C6 (type VI collagen synthesis) vs. placebo ([5]; FIG. 28): decreased; also recorded: reduced in participants receiving Compound 5 vs. placebo (not significant)
- Type I Collagen gene Col1a1 expression, normalized to DMSO control slices [6]: decreased Type I Collagen gene Col1a1 expression substantially

From patent US20240350494A1, “THERAPEUTIC MODULATION OF INTEGRINS” (Pliant Therapeutics, Inc., priority 2021, published 2024)
